PMC11123931, “The Synergistic Effect of N2 and N7 Modifications on the Inhibitory Efficacy of mRNA Cap Analogues” (Pharmaceuticals, 2024)
Read-outs that look alike come from different tables or passages of the source.

Experiments:
[1] = tested on: cap-dependent translation in rabbit reticulocyte lysate (RRL); conditions: cited from earlier work; for times more potent inhibition than the standard dinucleotide m^7GpppG: pure water without DMSO; for IC50: RRL, water solutions without DMSO, previously determined, read-out: IC50^WATER ± SE
[2] = tested on: cap-dependent translation; conditions: 1% DMSO solution; cited from earlier work
[3] = target: T1, human eIF4E (heIF4E) (Homo sapiens, UniProt P06730); test: Thermal stabilization of heIF4E by differential scanning fluorimetry (DSF); type: binding; conditions: 1% DMSO; for Relative Change in Affinity to m^7GMP: DSF appK ratio; for Kd: from ΔTm versus ligand concentration, single site ligand binding model, read-out: appK ± SE (apparent affinity to heIF4E)
T1 construct: The thermal stability of human full-length eIF4E (heIF4E) was analyzed; made in house
T1 sequence (P06730 whole entry): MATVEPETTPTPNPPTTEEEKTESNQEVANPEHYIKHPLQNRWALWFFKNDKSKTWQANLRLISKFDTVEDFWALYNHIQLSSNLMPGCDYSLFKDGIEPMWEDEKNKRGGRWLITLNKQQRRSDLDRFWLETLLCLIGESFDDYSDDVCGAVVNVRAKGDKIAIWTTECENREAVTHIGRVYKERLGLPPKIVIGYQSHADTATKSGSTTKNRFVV
Method: The thermal stability of human full-length eIF4E (heIF4E) was analyzed using differential scanning fluorimetry (DSF), similar to that described previously for murine eIF4E [30]. heIF4E was expressed and purified as described earlier. The assay sample (20 μL) contained 5× SYPRO Orange (Sigma Aldrich, St. Louis, MO, USA) and 4 μM of heIF4E (final concentration) in HEPES/KOH with 100 mM KCl, 0.5 mM EDTA, and 1 mM DTT (pH 7.2). The tested compounds, as 10× stocks in 10% DMSO, were added to the final concentration at a range from 1 μM to 200 μM. DMSO at a 1% final concentration was then added to the control reactions without any compounds. […] The melting temperature (Tm) was determined as the minimum of the first negative derivative with the built-in CFX Manager Software (Bio-Rad).

[4] = tested on: cap-dependent translation in rabbit reticulocyte lysate (RRL); test: Inhibition of cap-dependent translation of ARCA-capped luciferase mRNA in rabbit reticulocyte lysate (RRL); type: biochemical; conditions: for Inhibition Relative to m^7GMP IC50^DMSO (m^7GMP)/ IC50^DMSO (Cap Analogue) / Inhibition Relative to m^7GpppG IC50^DMSO (m^7GpppG)/ IC50^DMSO (Cap Analogue): 1% DMSO; for IC50: ARCA-capped luciferase mRNA, 1% DMSO final concentration, read-out: IC50^DMSO ± SE
Method: To estimate the ability of the newly synthesized double-modified nucleotides to inhibit cap-dependent translation, the […] translation system from rabbit reticulocytes lysate (RRL) was used according to previously described procedures. This procedure was implemented because it mimics the competition between the cap analogue and the mRNA in the all-natural system. Briefly, experiments were performed in a micrococcal nuclease-treated RRL using an in vitro-transcribed, ARCA-capped, β-globin 5′ UTR containing mRNA encoding firefly luciferase to allow for the determination of protein synthesis by luminometry. […] Initially, the compounds were prepared in an aqueous solution containing 10% DMSO, and inhibition was measured at a final concentration of 1% DMSO. Incubations were conducted at several series of inhibitor concentrations in three independent measurement series (Figure 4).
Stock solutions were subsequently used for serial dilutions (in 10% DMSO). […] Experiments of the inhibition of the cap-dependent translation in rabbit reticulocyte lysate (Flexi RRL System, Promega) were performed as previously described. […] Next, 1.25 μL of the tested compound (as a solution in 10% DMSO) and m2^7,3′OGpppG-capped luciferase mRNA (to a final concentration of 5 ng/μL) was added to the reaction, and the translation mixture (12.5 μL final volume) was incubated for an additional 60 min. As a reference, reactions with DMSO (1.25 μL of 10% solution) were prepared. The reactions were stopped by chilling on ice, and the luciferase activity was determined in a Glomax luminometer (Promega). The IC50 values were obtained by fitting to the experimental data a theoretical curve that describes the extent of inhibition as a function of competitive inhibitor (e.g., cap analogue) concentration.

[5] = Solubility in water; type: physicochemical
[6] = listed as (4-(diOCH3-bn)-tz-CH2)2bn^7GpppG (4)

| Compound | Kd ([3]; DSF) [µM] | Inhibition Relative to m^7GMP IC50^DMSO (m^7GMP)/ IC50^DMSO (Cap Analogue) [4] | Inhibition Relative to m^7GpppG IC50^DMSO (m^7GpppG)/ IC50^DMSO (Cap Analogue) [4] | IC50 [4] [µM] | IC50 [1] [µM] | further results |
| --- | --- | --- | --- | --- | --- | --- |
| Nc1nc2c(ncn2[C@@H]2O[C@H](COP(=O)(O)OP(=O)(O)OP(=O)(O)OC[C@H]3O[C@@H](n4c[n+](Cc5ccccc5)c5c(=O)[nH]c(N)nc54)[C@H](O)[C@@H]3O)[C@@H](O)[C@H]2O)c(=O)[nH]1 [bn^7GpppG] | – | – | – | – | – | times more potent inhibition than the standard dinucleotide m^7GpppG [1]: approximately 1.5 |
| Nc1nc2c(c(=O)[nH]1)[n+](Cc1ccccc1)cn2[C@@H]1O[C@H](COP(=O)([O-])O)[C@@H](O)[C@H]1O [compound 1, 7-benzylguanosine monophosphate] | – | – | – | – | – | inhibitory properties compared to m^7GMP (times better) [2]: 1.5 |
| Cn1c[n+]([C@@H]2O[C@H](COP(=O)(O)O)[C@@H](O)[C@H]2O)c2nc(N)[nH]c(=O)c21 [m^7GMP] | – | – | – | 19.2 ± 3.31 | > 50 | – |
| Cn1c[n+]([C@@H]2O[C@H](COP(=O)([O-])OP(=O)(O)OP(=O)(O)O)[C@@H](O)[C@H]2O)c2nc(N)[nH]c(=O)c21 [m^7GTP] | – | – | – | 1.09 ± 0.14 | 2.3 ± 0.2 | – |
| (4-(diOCH3-bn)-tz-CH2)^2m^7GpppG | – | – | – | – | – | times more potent inhibition than the standard dinucleotide m^7GpppG [1]: ~6.9 |

More lines, main results first:

| Kd ([3]; DSF) [µM] | Inhibition Relative to m^7GMP IC50^DMSO (m^7GMP)/ IC50^DMSO (Cap Analogue) [4] | Inhibition Relative to m^7GpppG IC50^DMSO (m^7GpppG)/ IC50^DMSO (Cap Analogue) [4] | IC50 [4] [µM] | Compound | IC50 [1] [µM] | further results |
| --- | --- | --- | --- | --- | --- | --- |
| 13.3 ± 3.45 | 10.67 | 2.47 | 1.8 ± 0.21 | COc1cccc(OC)c1OCCCn1cc(CNc2nc3c(c(=O)[nH]2)[n+](C)cn3[C@@H]2O[C@H](COP(=O)([O-])O)[C@@H](O)[C@H]2O)nn1 [compound 2, (4-(diOCH3-bn)-tz-CH2)2m^7GMP] | 2 ± 0.1 | Relative Change in Affinity to m^7GMP [3]: 1.8 |
| 14.7 ± 1.14 | 7.11 | 1.64 | 2.7 ± 0.3 | COc1cccc(OC)c1OCCCn1cc(CNc2nc3c(c(=O)[nH]2)[n+](Cc2ccccc2)cn3[C@@H]2O[C@H](COP(=O)([O-])O)[C@@H](O)[C@H]2O)nn1 [compound 3] | – | Relative Change in Affinity to m^7GMP [3]: 1.7; solubility in water [5]: only partially soluble in water |
| 3.58 ± 1.09 | 80.08 | ~18 | 0.24 ± 0.02 | COc1cccc(OC)c1OCCCn1cc(CNc2nc3c(c(=O)[nH]2)[n+](Cc2ccccc2)cn3[C@@H]2O[C@H](COP(=O)(O)OP(=O)([O-])OP(=O)(O)OC[C@H]3O[C@@H](n4cnc5c(=O)[nH]c(N)nc54)[C@H](O)[C@@H]3O)[C@@H](O)[C@H]2O)nn1 [compound 4] | – | Relative Change in Affinity to m^7GMP [3, 6]: 6.8; ΔTm of heIF4E ([3]; DSF, below a 10 μM final concentration): ~ 10 °C; Inhibition Relative to m^7GpppG IC50^DMSO (m^7GpppG)/ IC50^DMSO (Cap Analogue) [4, 6]: 18.54 |
| – | – | – | 4.45 ± 0.61 | Cn1c[n+]([C@@H]2O[C@H](COP(=O)(O)OP(=O)([O-])OP(=O)(O)OC[C@H]3O[C@@H](n4cnc5c(=O)[nH]c(N)nc54)[C@H](O)[C@@H]3O)[C@@H](O)[C@H]2O)c2nc(N)[nH]c(=O)c21 [m^7GpppG] | 8.6 ± 0.7 | – |
